This note sets out measurements from patent publication US20240108740A1, “THERAPEUTIC COMPOSITIONS INCLUDING SPN10 AND USES THEREOF” (Stealth BioTherapeutics Inc., priority 2022, published 2024).

Residues, ends and D or L forms follow the SMILES beside them.

Data set [1] has as its system isolated mouse liver mitochondria. The experiment in a line: Example 10: uptake into isolated mitochondria. It is filed as in vitro ADME. On the procedure: To isolate mitochondria from mouse liver, mice will be sacrificed by decapitation. The liver will be removed and rapidly placed into chilled liver homogenization medium. The liver will be finely minced using scissors and then homogenized by hand using a glass homogenizer.
The homogenate will be centrifuged for 10 minutes at 1000×g at 4° C. The supernatant will be aspirated and transferred to polycarbonate tubes and centrifuged again for 10 minutes at 3000×g, 4° C. The resulting supernatant will be removed, and the fatty lipids on the side-wall of the tube will be removed.
The pellet will be resuspended in liver homogenate medium and the homogenization repeated twice. The final purified mitochondrial pellet will be resuspended in medium. Protein concentration in the mitochondrial preparation will be determined by the Bradford procedure.
Approximately 1.5 mg mitochondria in 400 μL buffer will be incubated with [^3H] peptide conjugates; [^3H] aromatic-cationic peptides (an equivalent molar dose of aromatic-cationic peptide based on the concentration of the aromatic-cationic peptide administered in the peptide conjugate treatment group); [^3H] […] The mitochondria will then be centrifuged and the amount of radioactivity will be determined in the mitochondrial fraction and buffer fraction. […]

The test system is the same in data set [2]. In words: Example 19: H2O2 production by isolated mitochondria (luminol chemiluminescence). The note with it: AUC over 20 min. On the procedure: Livers will be harvested from mice, homogenized in ice-cold buffer, and centrifuged at 13800×g for 10 min. The pellet will be washed once, re-suspended in 0.3 mL of wash buffer, and placed on ice until use. H2O2 will be measured using luminol chemiluminescence as described previously (Li, et al., Biochim. Biophys. Acta 1428:1-12 (1999). 0.1 mg mitochondrial protein will be added to 0.5 mL potassium phosphate buffer (100 mM, pH 8.0) in the presence of vehicle, peptide conjugates, SPN10(s) alone or in combination with aromatic-cationic peptides, or aromatic-cationic peptides. […] luminol and 0.7 IU horseradish peroxidase will be added, and chemiluminescence will be monitored with a Chronolog Model 560 aggregometer (Havertown, PA) for 20 minutes at 37° C. The amount of H2O2 produced will be quantified as the area under the curve (AUC) over 20 min, and all data will be normalized to AUC produced by mitochondria alone.

The test system of another data set is Sprague Dawley rats. In words: Example 49: progression of tissue damage following a burn. The note with it: rat, in vivo. The procedure: Sprague Dawley rats will be randomized into the following groups; sham-burn (SB), burn with saline treatment (B), burn with peptide conjugate-treatment (BP), burn with aromatic-cationic peptides (BP2), burn with SPN10(s) (BP3), and burn with SPN10(s)+aromatic-cationic peptides (BP4). Band BP, BP2, BP3 and BP4 animals will receive a 30% total body surface area full thickness burns by immersing the dorsal body into 100° C. water for 12 seconds with immediate fluid resuscitation. […] Wound re-epithelialization, contraction, and depth will be assessed via gross morphology and histologically over a period of 21 days. […]
Apoptosis of hair follicles of the skin will be measured using TUNEL labeling and activated caspase-3 immunostaining using skin samples obtained between 0 and 48 hours post-burn. Quantification of TUNEL and caspase-3 staining will be done on digitally acquired images at high power. The number of positive cells per high power field will be determined, and compared among the groups.
[…] mapping will be performed using Doppler imaging to assess wound blood flow. Two hours post-burn, the dorsum of the animal will be imaged on a scanning laser Doppler apparatus to quantify the superficial blood flow distribution in the skin within and outside of the burn area. For […] mapping, 100 male Sprague-Dawley rats will be used. […]

Turning to `N=C(N)NCCC[C@H](NC(=O)[C@@H](N)Cc1c[nH]c2ccccc12)C(=O)N[C@@H](Cc1c[nH]c2ccccc12)C(=O)N[C@@H](CCCCN)C(N)=O` [SPN10, H-L-Trp-L-Arg-L-Trp-L-Lys-NH2] (H-WRWK-NH2), the “concentration in mitochondria compared with buffer” value in data set [1] (5-30 minutes at 37° C.) was “higher than in the buffer”. In addition, the “amount associated with the mitochondrial pellet after FCCP” value in data set [1] (FCCP) is given as “decrease the amount”. The “amount of H2O2 production” value in data set [2] is on record as “significantly reduced”. In the data set on Sprague Dawley rats, the “burn-induced apoptosis and blood flow” value was “reduce burn-induced apoptosis and blood flow”; the “wound healing and progression of burn injuries” value was “accelerate wound healing and attenuate the progression of burn injuries”.
